Results as given in US6900200B2, “Tricyclic hydroxy carboxamides and derivatives thereof tocolytic oxytocin receptor antagonists” (Wyeth, priority 2001, dated 2005).
pIC50: −log10 of the molar value.

The molecules below were run against T1, human vasopressin V2 receptor subtype (Homo sapiens, UniProt P30518) (assay: Vasopressin binding in CHO cell membranes expressing human vasopressin V2 subtype receptors ([3H]arginine vasopressin radioligand binding)). Conditions: @ 100 nM.
T1 construct: host or cells: CHO cells, pZeoSV vector
Text: Vasopressin Binding in Chinese Hamster Ovary Cell Membranes Expressing Human Vasopressin V2 Subtype Receptors
Chinese Hamster Ovary (CHO) cells stably transfected with the human V2 subtype receptors were obtained from M. Thibonnier, Case Western Reserve University School of Medicine, Cleveland, Ohio.
A. Passaging and Amplification of Cells
CHO cells transfected with the human vasopressin V2 subtype receptors obtained from M. Thibonnier (pZeoSV vector) are allowed to grow to confluency (approx. >90%) in T-150 flasks under sterile conditions, in a cell culture medium ofF-12 Nutrient Mixture (HAM) with L-glutamine (Gibco Cat. #11765-054) containing 15 mM HEPES (Gibco Cat. #15630-080), 1% antibiotic/antimycotic (add 5 mL 100×, Gibco Cat. #15240-062 per 500 mL F-12), 250 μg/mL Zeocin (add 1.25 mL of 100 mg/mL Invitrogen R-250-01 per 500 mL F-1 2) and 10% Fetal Bovine Serum (Qualified, heat inactivated, Gibco Cat. #16140-063). The medium is removed by aspiration and the cells washed with 10 mL of Hank's Balanced Salt solution (Gibco Cat. #14175-095). The salt solution is removed by aspiration and the cells trypsinized with 5 mL of trypsin-EDTA (0.05% trypsin, 0.53 mM EDTA-4Na, Gibco Cat. #25300-070) for 1 min. The trypsin is removed by aspiration and the cells dislodged by tapping. Cell Culture medium (e.g. 30 mL for 1:30 split) is immediately added and mixed well to inactivate trypsin. 1 mL of detached cells is added to new culture flasks containing fresh Cell Culture medium (e.g. into 25 mL per T-150 flask), and mixed gently. The cells are incubated at 37° C. in 5% CO2. The medium is changed at 3 to 4 day interval (or as appropriate). The cells grow to confluency (approx. >75%-95%) within 7-8 days. All steps are done under sterile conditions.
The cells are washed twice gently with Hank's Balanced Salt solution (e.g. use 10 mL per T-150 flask). The excess solution is removed and the cells bathed for 15-30 min. in an enzyme-free Cell Dissociation Buffer (e.g. use 8 mL Hank's Based, Gibco Cat. # 13150-016 per T-150 flask) until cells are loosened. The contents are transferred to centrifuge tubes (50 mL) kept in ice bath. All subsequent steps are done at 4° C. The tubes are centrifuged at 300×g for 15 min (1380 rpm on SORVAL, Model RT6000D, using the rotor for 50 mL tubes). The supernatant is discarded and the cells suspended in homogenizing buffer (10 mM Tris-HCl containing 0.25 M sucrose and 1 mM EDTA, pH 7.4) ensuring that the volume of the buffer is about ten times the volume of the cell pellet. The cells are pooled into a centrifuge tube (50 mL) and homogenized with Polytron at setting 6 for 10 sec. The homogenate is transferred into a Potter-Elvjehm homogenizer and homogenized with 3 strokes. The homogenate is centrifuged at 1500×g for 60 min at 4° C. (3100 rpm using SORVAL, model RT6000D, using the rotor for 50 mL tubes). The pellet is discarded. The supernatant is centrifuged at 100,000×g for 60 min. at 4° C. (Beckman L8-80M ultracentrifuge; spin at 37,500 rpm with rotor type 70 Ti for 50 mL tubes; 38,000 rpm with type 80Ti for 15 mL tubes; or 35,800 rpm with rotor type 45Ti). The supernantant is discarded and the pellet suspended in 3 to 4 mL of Tris buffer (50 mM TRIS—HCl, pH 7.4). The protein content is estimated by the Bradford or Lowry method. The volume of the membrane suspension is adjusted with the membrane buffer (50 mM Tris-HCl containing 0.1% BSA and 0.1 mM PMSF) to give 3.0 mg/mL (or as appropriate) of protein. The membranes are aliquoted and stored at −70. ° C.
C. Radioligand Binding Assay
In wells of a 96-well format microtiter plate, is added 90, 110 or 130 μL (to make up a final volume of 200 μL) of assay buffer containing 50 mM of Tris-HCl (pH 7.4), […], 1 mg % aprotinin, 1 mg % leupeptin, 2 mg % 1,10-phenanthroline, 10 mg % trypsin inhibitor, and 0.1 mM PMSF. The inhibitors are added on the day of the experiment. […]

Row | inhibition at 0.1 µM | Molecule
1 | 16% | COc1ccccc1-c1ccc(C(=O)N2Cc3ccc(C(=O)N4CCN(CCO)CC4)n3Cc3ccccc32)cc1 [Example 47, [4-(2-Hydroxyethyl)-1-piperazinyl]{10-[(2′-methoxy[1,1′-biphenyl]-4-yl)carbonyl]-10,11-dihydro-5H-pyrrolo[2,1-c][1,4]benzodiazepin-3-yl}methanone]
2 | 11% | Cc1cc(C(=O)N2Cc3ccc(C(=O)N4CCN(CCO)CC4)n3Cc3ccccc32)ccc1-c1ccccc1C(F)(F)F [Example 48, [4-(2-Hydroxyethyl)-1-piperazinyl](10-{[2-methyl-2′-(trifluoromethyl)[1,1′-biphenyl]-4-yl)carbonyl}-10,11-dihydro-5H-pyrrolo[2,1-c][1,4]benzodiazepin-3-yl)methanone]
3 | 21% | COc1cccc(-c2cc(OC)c(C(=O)N3Cc4ccc(C(=O)N5CCN(CCO)CC5)n4Cc4ccccc43)cc2Cl)c1 [Example 49, {10-[(6-Chloro-3,3′-dimethoxy[1,1′-biphenyl]-4-yl)carbonyl]-10,11-dihydro-5H-pyrrolo[2,1-c][1,4]benzodiazepin-3-yl}[4-(2-hydroxyethyl)-1-piperazinyl]methanone]
4 | 16% | COc1cccc(-c2ccc(C(=O)N3Cc4ccc(C(=O)N5CCN(CCO)CC5)n4Cc4ccccc43)cc2OC)c1 [Example 50, {10-[(2,3′-Dimethoxy[1,1′-biphenyl]-4-yl)carbonyl]-10,11-dihydro-5H-pyrrolo[2,1-c][1,4]benzodiazepin-3-yl}[4-(2-hydroxyethyl)-1-piperazinyl]methanone]
5 | 3% | COc1cc(C(=O)N2Cc3ccc(C(=O)N4CCN(CCO)CC4)n3Cc3ccccc32)ccc1-n1c(C)ccc1C [Example 52, {10-[4-(2,5-Dimethyl-1H-pyrrol-1-yl)-3-methoxybenzoyl]-10,11-dihydro-5H-pyrrolo[2,1-c][1,4]benzodiazepin-3-yl}[4-(2-hydroxyethyl)-1-piperazinyl]methanone]

Same assay, conditions: value printed in parentheses

Row | Molecule | pIC50
6 | {(2S)-1-[(10-{[2-Methoxy-2(trifluoromethyl)[1,1′-biphenyl]-4-yl]carbonyl}-10,11-dihydro-5H-pyrrolo[2,1-c][1,4]benzodiazepin-3-yl)carbonyl]pyrrolidin-2-yl}-methanol [Example 36] | 5.68
